Entries after “also recorded” stand apart in the source; their conditions may differ.
Tests used:
[1] = test system: wild type diabetic (DM) mice; assay: Blood pressure in wild type diabetic mice; assay type: in vivo
Text: (§1) FIG. 1 represents a graph showing that ACE inhibitors are effective in lowering blood pressure in wild type diabetic (DM) mice. Shown in FIG. 1 is the effect of no treatment (No TX), the ACE inhibitor enalapril (DM enalapril), and the ARB telmisartan (DM telmisartan).
as §1, with “is” for “represents”, “telmisartan). […] These are considered early changes of diabetic nephropathy.” for “telmisartan).”

[2] = test system: wild type diabetic (DM) mice; assay: Renal histology (early diabetic nephropathy) in wild type diabetic mice; assay type: in vivo
Text: These are considered early changes of diabetic nephropathy.
(§2) FIG. 4 ACE inhibitors and ARBs are not effective at preventing diabetic nephropathy in eNOSKO mice. DM caused mesangial expansion in DM eNOSKO mice (B), which was not prevented by enalapril (C) or telmisartan (D). […] Bar: 20 μm. […] Bar: 20 μm. White bar=no treatment; Black bar=enalapril; Gray bar=telmisartan. Data are shown as means and
as §1, with “is” for “represents”, “telmisartan). […] These are considered early changes of diabetic nephropathy.” for “telmisartan).”
(§3) DM caused mesangial expansion in DM eNOSKO mice (b), which was not prevented by enalapril (c) or telmisartan (d). […] Bar: 20 μm. […] Bar: 20 μm. White bar=no treatment; Black bar=enalapril; Gray bar=telmisartan. FIG. 5 pertains to a table that provides results of the effect of ACE inhibitors and ARBs on blood pressure and renal function in diabetic nephropathy in eNOSKO mice. ACE inhibitors and ARBs are effective at lowering blood pressure and proteinuria in wild type diabetic mice, and are also effective at lowering blood pressure in nondiabetic eNOSKO mice.

DM eNOSKO mice [3] = assay: Blood pressure in diabetic eNOSKO mice; assay type: in vivo; conditions: diabetic mice lacking endothelial nitric oxide synthesis; 50 mg/kg
DM eNOSKO mice [4] = assay: Renal histology (diabetic nephropathy) in diabetic eNOSKO mice; assay type: in vivo
Text: It has been shown that when diabetes is induced in these mice with streptozotocin, that they develop all aspects of human diabetic nephropathy, including clinical manifestations (nephrotic proteinuria, progressive renal failure and early mortality), histologic manifestations (including mesangial expansion, nodules and mesangiolysis, podocyte abnormalities, vascular lesions, tubulointerstitial disease) and molecular changes (increases in TGF-β and VEGF expression). To the inventors' knowledge this is also the first diabetic model that develops both retinopathy and nephropathy spontaneously.
as §2
FIG. 7 is an immunohistograph of a kidney of a Diabetic eNOSKO mouse showing an increase in aldosterone in its glomeruli. Diabetes was induced with streptozotocin in eNOSKO mice, which were treated with enalapril (10 mg/kg BW/day; black bar) or telmisartan (2 mg/kg BW/day; gray bar) for 4 weeks (from at 6 weeks to 10 weeks)
as §3

mitochondria = assay: Mitochondrial loss in response to oxidative stress
eNOSKO mice = conditions: 4 weeks, 50 mg/l drinking water
Experimental: Since nitrite is a metabolite of NO, and can be converted to NO in the body (reviewed in ^28), sodium nitrite was tested to see if it could prevent hypertension in eNOSKO mice.

[5] = test system: human aortic endothelial cells; assay: ATP levels in endothelial cells; assay type: cell-based; conditions: 3.5, 7 and 12 mg/dl, 48 hours
Experimental: Uric acid (3.5 mg/dl, 7 mg/dl and 12 mg/dl) was included in the media for 48 hours.
(§4) One of the key mechanisms by which uric acid acts to cause endothelial dysfunction is to cause a loss of mitochondria and mitochondria DNA, resulting in depletion of ATP stores necessary for endothelial function (FIGS. 11 and 12).

[6] = test system: human aortic endothelial cells; assay: Cell viability (trypan blue exclusion); assay type: cell-based; conditions: 48 hours
[7] = test system: human aortic endothelial cells; assay: Oxidative stress (DCF-DA fluorescence) in endothelial cells; assay type: cell-based; conditions: 12 mg/dl
Experimental: The green fluorescence is a measure of a marker for oxidative stress using the peroxide-sensitive probe 2′7′-dichlorofluorescein diacetate (DCF-DA) dye (FIG. 9A). On the right is the quantitation of oxidative stress, with control in open bar, uric acid (12 mg/dl) in the black bar, and uric acid with apocynin (an inhibitor of NADPH oxidase-induced oxidants) in the right bar (FIG. 9B).

[8] = test system: human aortic endothelial cells; assay: Mitochondria number (Mitotracker Orange) in endothelial cells; assay type: cell-based; conditions: 12 mg/dl, 48 hours
Experimental: Mitochondria numbers were measured with Mitotracker Orange in control cells (FIG. 12A) and UA treated cells (FIG. 12B). Shown in FIG. 12C is the quantified effect of uric acid 12 mg/dl on mitochondria density at 48 hours.
as §4

[9] = test system: porcine aortic endothelial cells; conditions: various doses, from Khosla et al; cited from earlier work
DM eNOSKO mice [10] = conditions: diabetic eNOS-deficient mice; reference 21; cited from earlier work

| Molecule | blood pressure (BP) [1] | glomerular type IV collagen deposition [2] | mesangial expansion [2] | advanced lesions (mesangiolysis with glomerular capillary microaneurysms, augmented deposition of extracellular matrix) (DM eNOSKO mice [4]) | mesangial expansion (DM eNOSKO mice [4]) | other results |
| --- | --- | --- | --- | --- | --- | --- |
| CCOC(=O)[C@H](CCc1ccccc1)N[C@@H](C)C(=O)N1CCC[C@H]1C(=O)O [enalapril] | can significantly lower blood pressure | improve | improve mesangial expansion; also recorded: beneficial effect | Neither enalapril (g) nor telmisartan (h) treatment prevented these advanced lesions | not prevented | BP (DM eNOSKO mice [3]): did not lower BP |
| O=C(NCCO[N+](=O)[O-])c1cccnc1 [nicorandil] |  |  |  |  |  | mitochondrial loss (mitochondria): can prevent mitochondrial loss |
| O=NO [sodium nitrite] |  |  |  |  |  | blood pressure (eNOSKO mice): reduced blood pressure in eNOSKO mice similar to that observed in wild type mice |
| CCCc1nc2c(C)cc(-c3nc4ccccc4n3C)cc2n1Cc1ccc(-c2ccccc2C(=O)O)cc1 [telmisartan] | can significantly lower blood pressure | improve | improve mesangial expansion; also recorded: beneficial effect | Neither enalapril (g) nor telmisartan (h) treatment prevented these advanced lesions | not prevented |  |
| O=c1[nH]c(=O)c2[nH]c(=O)[nH]c2[nH]1 [uric acid] |  |  |  |  |  | ATP levels [5]: reduces ATP levels; cell viability ([6]; 12 mg/dl): No effects on cell viability; cell viability (trypan blue exclusion) ([6]; 3.5, 7 and 12 mg/dl): No alterations in cell viability; oxidative stress (DCF-DA) [7]: causes oxidative stress; mitochondria number [8]: reduces mitochondria number; endothelial NO levels (fluorescence of DAF) [9]: causes a reduction in endothelial NO levels |
| insulin |  |  |  |  |  | renal disease (DM eNOSKO mice [10]): can be prevented |

Reference: US20110257202A1, “Therapeutic Compositions and Methods for Treating Chronic Kidney Disease Associated with a Metabolic Imbalance” (priority 2008, published 2011)
